Test results reported in patent US4425360A, “Pharmacologically active novel O-substituted pyruvic acid oximes” (Boehringer Mannheim GmbH, priority 1980, dated 1984).

Tests used:
glucose resorption = experiment: Resorption-inhibiting activity: oral glucose loading in fasting guinea pigs; format: in vivo, guinea pig; settings: Cavia porcellus, ip, 1 g glucose p.o., AUC difference vs control; for inhibition in vivo at 20 mg/kg: dose 20 mg/kg i.p.; for inhibition in vivo at 40 mg/kg: dose 40 mg/kg i.p.; for inhibition in vivo at 25 mg/kg: dose 25 mg/kg i.p.
Procedure: 2. Test procedure for determination of resorption-inhibiting activity
To determine the effect on glucose resorption, oral glucose loading was effected. To this end, the substance to be tested was administered intraperitoneally as potassium salt, as described, to a group of ten fasting guinea pigs. At the same time, 1 g glucose was orally administered to the animals as a 20% solution by means of an esophageal bougie.
After a preliminary value had been established, blood was taken from the animals at close intervals (20 min. to 200 min.) for determination of the glucose concentrations, as described.
A parallel control group was also given 1 g glucose p. o., and intraperitoneally a corresponding amount of 0.9% NaCl solution.
The blood-glucose concentration was determined in the hemolyzate by the hexokinase method, as described.
With regard to glucose resorption, the area under the concentration/time curve, calculated by means of the empirical trapeze formula, served as quantity to be measured. The difference in the area between the control and test groups, expressed in percent, was used as a measure for the inhibition of glucose resorption.

[1] = system: blood-glucose concentration; experiment: Threshold dose of blood-glucose-lowering activity in fasting guinea pigs (i.p.); format: in vivo, guinea pig; settings: Cavia porcellus, ip
Procedure: 1. Test procedure for determination of threshold dose
Fasting guinea pigs were used as experimental models to determine the threshold dose of the blood-glucose-lowering activity of the substances to be investigated. Food was withheld from the animals used in the investigations for 16 hours prior to the start of the tests. The animals remained without food for the entire testing period but had free access to drinking water.
The substances were administered intraperitoneally as a solution of the potassium salt at pH 7.4.
A parallel control group was given an 0.9% NaCl solution.
The drawing of blood for determination of the glucose concentrations was effected immediately prior to administration of the substances and at one-hour intervals up to the fourth hour after the administration of the substances. To this end, an ear vein was carefully punctured with a No. 18 cannula, and the drops of blood issuing were picked up with a 10 μl capillary.
The blood-glucose concentration was determined in the hemolyzate by the specific hexokinase method. To this end, the 10 μl blood sample was pipetted into a stabilizer solution containing digitonin as hemolysis accelerator and maleinimide as […]. Following this, an aliquot was taken from the hemolyzate so obtained and determined by the hexokinase method on an LKB 8600 (made by LKB, Bromma, Sweden).
The dose which with the specified number of test animals per dose group (N=4) was just large enough to produce a significant lowering of fasting glycemia (p>0.05) was adopted as threshold dose.

[2] = potassium salt pH 7.4, N=4 per dose group, smallest dose significantly lowering fasting glycemia
[3] = potassium salt pH 7.4, N=4, remark printed: weak

SMILES | minimal effective dose [1, 2] [mg/kg] | inhibition in vivo at 40 mg/kg (glucose resorption) [%] | further results
CC(=CCON=C(C)C(=O)O)c1ccccc1 [Example 3, 2-(γ-Methylcinnamyloxyimino)-propionic acid] | 50 | – | inhibition in vivo at 30 mg/kg (glucose resorption; dose 30 mg/kg i.p.): 0%
CC(=NOCCCc1ccccc1)C(=O)[O-].[Na+] [Example 1b, sodium 2-(3-phenylpropyloxyimino)-propionate] | 25 to 50 | – | inhibition in vivo at 20 mg/kg (glucose resorption): 39%
CC(=Cc1ccccc1)CON=C(C)C(=O)O [Example 3b, 2-(β-methylcinnamyloxyimino)-propionic acid] | 50 | 40 | –
CCC(=NOCC=Cc1ccccc1)C(=O)O [Example 10a, 2-cinnamyloxyiminobutyric acid] | 25 | – | inhibition in vivo at 20 mg/kg (glucose resorption): 0%
CC(=NOCC#Cc1ccccc1)C(=O)O [Example 2d, 2-(3-phenyl-2-propynyloxyimino)-propionic acid] | – | 65 | minimal effective dose ([1]; potassium salt pH 7.4, N=4, remark printed: wk. indiv. animals): 25 mg/kg
C=CCON=C(C)C(=O)O [Example 4c, 2-(allyloxyimino)-propionic acid] | > 50 | 37 | –
CC(=NOCC=Cc1ccc(F)cc1)C(=O)O [Example 5, 2-(4-Fluorocinnamyloxyimino)-propionic acid] | 50 | 3 | –
CC(=NOCCOc1ccccc1)C(=O)[O-].[Na+] [Example 1c, sodium 2-(2-phenoxyethyloxyimino)-propionate] | – | 25 | minimal effective dose [1, 3]: 50 mg/kg
CC(=NOCC=Cc1cccc(Cl)c1)C(=O)O [Example 4, 2-(3-Chlorocinnamyloxyimino)-propionic acid] | 25 | – | inhibition in vivo at 20 mg/kg (glucose resorption): 55%
COc1cccc(C=CCON=C(C)C(=O)O)c1 [Example 5D, 2-(3-methoxycinnamyloxyimino)-propionic acid] | 25 | – | inhibition in vivo at 25 mg/kg (glucose resorption): 36%
CC(=NOCC=Cc1cc(Cl)ccc1C)C(=O)O [Example 5f, 2-(5-chloro-2-methylcinnamyloxyimino)-propionic acid] | 50 | 33 | –
CC(=NOCC=Cc1ccccc1Cl)C(=O)O [Example 4a, 2-(2-chlorocinnamyloxyimino)-propionic acid] | – | 41 | minimal effective dose [1, 3]: 50 mg/kg
CC(=NOCCc1ccccc1)C(=O)O [Example 2a, 2-(2-phenylethyloxyimino)-propionic acid] | 75 | 33 | –
CC(=NOCC=Cc1ccccc1)C(=O)O [Example 3a, 2-cinnamyloxyiminopropionic acid] | 25 | – | inhibition in vivo at 10 mg/kg (glucose resorption; dose 10 mg/kg i.p.): 33%
O=C(O)C=NOCC=Cc1ccccc1 [Example 10, Cinnamyloxyiminoacetic acid] | > 50 | – | inhibition in vivo at 25 mg/kg (glucose resorption): 69%
CC(=NOCC=Cc1cccc(C(F)(F)F)c1)C(=O)O [Example 5a, 2-(3-trifluoromethylcinnamyloxyimino)-propionic acid] | 50 | 34 | –
O=C(O)C(CF)=NOCC=Cc1ccccc1 [Example 9, 2-(Cinnamyloxyimino)-3-fluoropropionic acid] | 25 | – | inhibition in vivo at 20 mg/kg (glucose resorption): 26%
CC(=NOCC=Cc1ccccc1)C(=O)N1CCN(C)CC1 [Example 8, 4-[2-(Cinnamyloxyimino)-propionyl]-1-methylpiperazine] | > 50 | 44 | –
CC(=NOCC=Cc1ccc(Cl)cc1)C(=O)O [Example 4b, 2-(4-chlorocinnamyloxyimino)-propionic acid] | – | – | inhibition in vivo at 20 mg/kg (glucose resorption): 10%; minimal effective dose ([1]; potassium salt pH 7.4, N=4, remark printed: flat D-W curve): 25 to 50 mg/kg
